Source: article PMC3835742, “Lack of Plasma Kallikrein-Kinin System Cascade in Teleosts” (PLoS ONE, 2013)
Entries after “also recorded” stand apart in the source; their conditions may differ.

How the values were obtained:
[1] = system: polyclonal antiserum for [Arg^0]-BK; experiment: Radioimmunoassay (RIA) for [Arg^0, Trp^5, Leu^8]-bradykinin; assay type: binding, rabbit; conditions: for crossreactivity in the RIA: relative to [Arg^0]-BK standard, peptides serially diluted in RIA buffer, antiserum 1:10,000, 4 °C, 24 h
Description: [Arg^0, Trp^5, Leu^8]-bradykinin ([Arg^0]-BK: RRPPGWSPLR) was synthesized by Phoenix Pharmaceuticals Inc. (Burlingame, CA, USA). [Arg^0]-BK was N-terminally conjugated to thyroglobulin by the glutaraldehyde method. Briefly, 5 mg thyroglobulin was mixed with 1 mg [Arg^0]-BK in 4 mL PBS (pH 7.0) and glutaraldehyde was added to a final concentration of 0.05 %. The mixture was incubated at 25 °C for 1 h with gentle agitation and reaction was stopped by addition of 0.1 mL ethanolamine. The mixture was dialyzed against 1 L PBS overnight at 4 °C and protein concentration was determined. For each injection, 0.2 mg conjugated protein was used and three rabbits were first immunized with the conjugated protein in Freund’s complete adjuvant followed by two booster immunogen injections in Freund’s incomplete adjuvant. The interval between injections was 4 weeks and the rabbits were sacrificed for final bleeds 3 weeks after the third immunization.
Synthetic [Tyr^-1, Arg^0, Trp^5, Leu^8]-bradykinin (YRRPPGWSPLR) was radiolabeled by ^125I using the lactoperoxidase method and the iodinated peptide was purified by an HPLC system. The ^125I-BK was diluted in RIA buffer containing 0.1% RIA-grade bovine serum albumin to produce ~10,000 cpm per assay tube. The titers of the antiserum were determined by serial dilution and maximum binding was adjusted at 20 % of the total binding. […] Unbound fractions were removed by aspiration and specific binding in the pellet was measured using a gamma counter (Perkin Elmer, MA, USA). […]
(§1) To test the degradation rate of [Arg^0]-BK in plasma in vitro, 3 blood samples with inhibitor cocktail were prepared. […] The immunoreactive (ir)-[Arg^0]-BK was measured using the newly established RIA. […] The concentration of [Arg^0]-BK in the HPLC fractions were measured to determine the percentage recovery. Synthetic [Trp^5, Leu^8]-BK (BK) and [Arg^0, Trp^5, des-Leu^8, des-Arg^9]-bradykinin were serially diluted in RIA buffer and measured by RIA to determine the cross-reactivities among these closely related peptides.

[2] = Degradation rate of [Arg^0]-BK in plasma in vitro; assay type: in vitro ADME, Japanese eel; conditions: plasma with inhibitor cocktail (1,10-phenanthroline, potassium EDTA, aprotinin), spiked 3,000 fmol/mL, 25 °C, 0, 10 and 30 min, Sep-Pak extraction, RIA read-out, n = 3, Student t-test p > 0.05
Description: (§2) Juvenile, sexually immature Japanese eel (Anguilla japonica; 160 - 220 g), tilapia (Oreochromis niloticus; 50 - 100g), rainbow trout (Oncorhynchus mykiss; 100 - 200 g), and adult medaka of both sex (Oryzias latipes; 1.5 - 2.2 g) were kept in a freshwater recirculating aquarium system in the Atmosphere and Ocean Research Institute, the University of Tokyo. The water was maintained at 12 °C for trout, 18 °C for eel, 25 °C for tilapia, and 27 °C for medaka, and all animals were exposed to a 14/10 h light/dark cycle throughout the experiment. All animal experimental procedures were approved by the Animal Experiment Committee of the University of Tokyo. Fish were anesthetized by 0.1% ethyl 3-aminobenzoate methanesulfonate (Sigma, St. Louis, MO) neutralized with sodium bicarbonate. […]
as §1

[3] = Spiking of pooled plasma, Sep-Pak/HPLC extraction and RIA (recovery and integrity); parameters: species or system Japanese eel; conditions: pooled eel plasma with inhibitor cocktail spiked to 300, 1000, 3000 fmol/mL, ir-BK profile by RIA
Description: as §2, with “Tokyo.” for “Tokyo. Fish were anesthetized by 0.1% ethyl 3-aminobenzoate methanesulfonate (Sigma, St. Louis, MO) neutralized with sodium bicarbonate.”
The plasma samples were purified by Sep-Pak C18 cartridge, with equilibration buffer (100 mM Tris-HCl, 0.5 M NaCl, pH 7.4) for binding and absolute methanol for elution. The partially purified plasma was further resolved by a reverse-phase HPLC system (Tosoh PU-980, Tokyo) attached to a UV-absorbance detector (Tosoh, UV-970, Tokyo) and utilizing an analytical column (ODS 100S column, 4.6 mm I.D. x 25 cm, C-18, 5 μm particle size, Tosoh, Tokyo). […]
To test the degradation rate of [Arg^0]-BK in plasma in vitro, 3 blood samples with inhibitor cocktail were prepared. […] The immunoreactive (ir)-[Arg^0]-BK was measured using the newly established RIA. […]

eel = conditions: compared with BK, ref [14]; cited from earlier work

Substance: RRPPGWSPLR [[Arg^0]-BK, [Arg^0, Trp^5, Leu^8]-bradykinin, synthetic teleost decapeptide kinin, […], from Phoenix Pharmaceuticals]
- EC50 ([1]; displacement of 125I-[Tyr^-1, Arg^0, Trp^5, Leu^8]-bradykinin tracer, antiserum 1:10,000, 4 °C for 24 h, gamma counter, measurements in duplicate): 0.55 nM
- ir-[Arg^0]-BK content after incubation in plasma [2]: did not alter the peptide contents; also recorded: not statistically different among various time points
- integrity of spiked [Arg^0]-BK in plasma (conversion to BK) [3]: remained as a single ir-peak; also recorded: remained intact
- potency in eliciting cardiovascular and antidipsogenic effects (eel): more potent than BK

Substance: [Arg^0, Trp^5, des-Leu^8, des-Arg^9]-bradykinin [[Arg^0, Trp^5, des-Leu^8, des-Arg^9]-BK]
- crossreactivity in the RIA [1]: negligible crossreactivity

Substance: [Trp^5, Leu^8]-BK
- crossreactivity in the RIA [1]: 71.3%
